# Experiment: Oil recovery from oil saturated formation core by brine displacement followed by DMS displacement
# Settings: after waterflooding with brine
# Experimental: Incremental recovery of oil from a formation core using an oil recovery formulation consisting of dimethyl sulfide following oil recovery from the core by water-flooding was measured to evaluate the effectiveness of DMS as a tertiary oil recovery agent.
# Two 5.02 cm long Berea sandstone cores with a core diameter of 3.78 cm and a permeability between 925 and 1325 mD were saturated with a brine having a composition as set forth in Table 7.
# After saturation of the cores with brine, the brine was displaced by a Middle Eastern Asphaltic crude oil having the characteristics as set forth above in Table 3 to saturate the cores with oil.
# Oil was recovered from each oil saturated core by the addition of brine to the core under pressure and by subsequent addition of DMS to the core under pressure. Each core was treated as follows to determine the amount of oil recovered from the core by addition of brine followed by addition of DMS. Oil was initially displaced from the core by addition of brine to the core under pressure. A confining pressure of 1 MPa was applied to the core during addition of the brine, and the flow rate of brine to the core was set at 0.05 ml/min. The core was maintained at a temperature of 50° C. during displacement of oil from the core with brine. […]
compound,measurement,value
"CSC [Dimethyl Sulfide, dimethyl sulfide]","oil recovered, of the oil remaining in the core after the waterflood",approximately 60%
